Legend:
animal models of seizure = conditions: in vivo; cited from earlier work
PCP-treated rats = assay: Social interaction test, sub-chronic PCP model of schizophrenia; assay type: in vivo, rat
Procedure: Female hooded-Lister rats were used for this experiment. Rats were housed in groups of 5 under standard laboratory conditions under a 12 hr light: dark cycle, lights on at 0700 hr. Testing was carried out in the light phase.
Rats were randomly assigned to two treatment groups and treated with vehicle, n=20 (distilled water, i.p.) or Phencyclidine hydrochloride (PCP), n=100 (2 mg/kg, i.p. twice daily for 7-days). PCP was dissolved in distilled water. This was followed by a 7-day wash out period before the rats were tested following acute treatment with CBDV, risperidone or vehicle.
Risperidone (0.1 mg/kg) was dissolved in a minimum volume of acetic acid, made up to volume with distilled water and pH adjusted to 6 with 0.1M NaOH and administered via the i.p. route in a volume of 1 ml/kg, 60 min prior to testing.
CBDV at 2, 10 or 20 mg/kg was dissolved in 2:1:17 (Ethanol:Cremofor:Saline 0.9%) and administered via the i.p. route in a volume of 5 ml/kg, 60 min prior to testing.
The social interaction test is performed in an open-field comprising a square box made of Plexiglas (52×52×31 cm) placed 27 cm above the floor on a moveable trolley. The floor of the box is white with black gridlines forming 9 identical squares on it. All other walls are black. A video camera connected to a video recorder and monitor is positioned above the box. The object used for the test consists of a heavy structure made of metal that cannot be displaced by the animals.
The rats were habituated to the test environment and arena prior to the test day. Habituation consists of placing all rats from one cage together in the empty test arena for one hour for three days including the day before the test day.
Pairs of rats, weight matched (15-20 g) and unfamiliar to each other, receiving either no treatment (n=70 “conspecific” rats) or different treatments (PCP and Vehicle; n=10 “tested” rats or PCP+Drug; n=50 “tested” rats) were placed in the test arena together for 10 min and behaviour assessed as described below.
An inanimate object such as an unopened drinks can is also placed in the centre of the arena to measure any differences in interaction of the test animal with an unfamiliar animal as opposed to an unfamiliar object. After each 10 minute trial, the object and arena are cleaned with 10% alcohol in an attempt to remove traces of any olfactory cues. All testing is carried out under standard room illumination levels (70 cd/m2).
Behaviour in both trials was recorded on video for subsequent blind scoring. A behavioural scoring software program (Hindsight, Scientific programming services) is used to score the following parameters: • Investigative sniffing behaviour: sniffing the conspecific's snout or parts of the body including the anogenital region; • Following: rat moves after the conspecific i.e. a vehicle treated rat of the same species, around the arena; • Avoidances: actively turning away when approached by the conspecific animal; • Investigation of object: exploration of object placed in centre of the arena; and • Locomotor activity is recorded by counting the total number of sectors (i.e. lines) crossed by the test rat. Results

Ube3am-/p+ (AS) mice = assay: Rotarod test in Angelman syndrome model; assay type: in vivo, mouse; conditions: CBDV 20 mg/kg i.p. chronic treatment (30 days); AS mice vs AS vehicle
Procedure: Heterozygous mice with maternal deficiency of Ube3A (Ube3am−/p+) and wild type (Ube3am+/p+) were purchased from The Jackson Laboratory (Jackson code: B6.129S7-Ube3a tm1Alb/J) and maintained in a C57BL/6 background.
Drugs were dissolved in 1:1:18 ethanol:cremophor:0.9% saline, for intraperitoneal (i.p.) administration. Drug treatment was performed daily for 35 days. CBDV was administered at 20 mg/kg.
Rotarod: The rotarod test assesses balance and motor coordination of mice. Mice have been measured for the time (in seconds) of equilibrium before falling on a rotary cylinder by a magnet that, activated from the fall of the mouse on the plate, allows to record the time of permanence on the cylinder. […] The animals were analysed by 2 separate tests at 1-h interval in the same day.

Fmr1 KO mice = assay: Novel object recognition task in Fragile X model; assay type: in vivo, mouse
Procedure: Fmr1 KO mice and wild type mice were obtained and housed four per cage in a temperature of 21° C.±1° C. and humidity of 55%±10% controlled environment. Food and water were available ad libitum. All experiments were performed during the light phase of a 12 hour light/dark cycle (08:00 to 20:00). Animals were handled for one week before the start of experiments. All behavioural tests were performed by researchers blind to the different experimental groups.
On day one mice were habituated for 10 minutes to the empty V-maze in which the task was to be performed. On the second day the mice went back to the maze for 10 minutes which contained two identical objects at the end of each corridor in the V-maze.
The following day the mice were placed again in the same maze for a further 10 minutes but one of the familiar objects was replaced for a novel object. The total time spent exploring the novel and familiar object was recorded. A discrimination index was calculated as the difference between the time spent exploring the novel and familiar object divided by the total time exploring the two objects. A high discrimination index (0.3-0.5) is considered to reflect memory retention for the familiar object.
Adult mice (10-15 weeks old) were treated either acutely with one dose of CBDV on […] or were treated once daily with CBDV for 7 consecutive days. Mice were evaluated in the novel object recognition task after the first and sixth day of CBDV administration. Doses of CBDV used were 2, 10, 20, 100 and 200 mg/kg.

For `C=C(C)[C@@H]1CCC(C)=C[C@H]1c1c(O)cc(CCC)cc1O` [CBDV, Cannabidivarin], the “efficacy in animal models of seizure” value (animal models of seizure) is given as “effective”, the “time spent avoiding the other rat (FIG. 18C)” value (PCP-treated rats; CBDV 20 mg/kg) is given as “reduce the amount of time” and the “time spent following the other rat (FIG. 18B)” value (PCP-treated rats; CBDV 20 mg/kg) is given as “increased the amount of time”. The “time spent sniffing the other rat (FIG. 18A)” value (PCP-treated rats; CBDV 10 and 20 mg/kg) was “significantly increased”, the “PCP effects on social interaction (sniffing, following, avoiding) (FIG. 18)” value (PCP-treated rats; CBDV acute i.p.) was “reverse these effects in a statistically significant manner” and the “latency to fall, rotarod (FIG. 12)” value (Ube3am-/p+ (AS) mice) was “reduced latency to fall”. The “discrimination index (FIG. 3A)” value (Fmr1 KO mice) was “no effect”, the “increase of discrimination index over vehicle treated mice (FIG. 3A)” value (Fmr1 KO mice; acute treatment, 2 mg/kg, knockout mice) was “not significant” and the “discrimination index vs vehicle treated knockout mice (FIG. 3B)” value (Fmr1 KO mice; chronic treatment once daily for 7 days, 20 and 100 mg/kg, knockout mice) was “statistically significant increase”.
